The results in this text go back to publication PMC4667226 (2015).

Assay [1] has as its system Tel7 (DNA, G4) TTAGGGT. Put plainly: fluorescence titration. The conditions noted are these: K+ (100 mM KCl, 10 mM potassium phosphate; quadruplex annealing buffer), pH 7.0, 25 °C; for Kd1: site 1 of 2.
Assay [2] has as its system Tel22 (DNA, G4) AGGGTTAGGGTTAGGGTTAGGG
Put plainly: fluorescence titration. The conditions noted are these: K+ (100 mM KCl, 10 mM potassium phosphate; quadruplex annealing buffer); pH 7.0, 25 °C; site 1 of 2.

Assay [3] concerns c-kit21up (DNA, G4) CGGGCGGGCGCGAGGGAGGGG
Nature of the assay: fluorescence titration. The conditions noted are these: K+ (100 mM KCl, 10 mM potassium phosphate; quadruplex annealing buffer); pH 7.0, 25 °C; single site.

The test system of assay [4] is c-myc (DNA, G4) TGAGGGTGGTGAGGGTGGGGAAGG
Put plainly: fluorescence titration. The conditions noted are these: K+ (100 mM KCl, 10 mM potassium phosphate; quadruplex annealing buffer); pH 7.0, 25 °C; site 1 of 2.

Assay [5] has as its system Tel7 (DNA, G4) TTAGGGT. Put plainly: NMR titration, NOESY and restrained MD structure. The conditions noted are these: K+; 298 K, H2O/D2O 9:1; stacks at T1pT2 and G6pT7; imino signals persist to 343 K versus lost at 323 K.

Take `C[C@@H]1O[C@@H](OC[C@H]2O[C@@H](Oc3c(-c4ccc(O)c(O)c4)oc4cc(O)cc(O)c4c3=O)[C@H](O)[C@@H](O)[C@@H]2O)[C@H](O)[C@H](O)[C@H]1O`: the Kd1 in the assay with Tel7 (DNA, G4) TTAGGGT [1] was 38 nM.
As for `O=c1c(-c2ccc(O)cc2)coc2cc(O)cc(O)c12`, the Kd (in general, the free concentration of one partner at which half of the binding sites on the other are occupied at equilibrium, for simple one-to-one binding) with Tel7 (DNA, G4) TTAGGGT [1] (same value under Kd1 and Kd2 (single binding pattern)) turned out to be 26.5 µM.
Regarding `O=c1c(O)c(-c2ccc(O)c(O)c2)oc2cc(O)cc(O)c12`, the Kd1 worked out at 30.2 nM in assay [2]; 1.13 µM in assay [3]; 4.9 nM with Tel7 (DNA, G4) TTAGGGT [1]; 138 nM in assay [4]. The binding result in the assay with Tel7 (DNA, G4) TTAGGGT [5] is “yes”.
In the case of `O=c1cc(-c2ccc(O)c(O)c2)oc2cc(O)cc(O)c12`, the Kd1 with Tel7 (DNA, G4) TTAGGGT [1] amounted to 23 nM.
